The subject of assay [1] is S6RP serine-240/244 phosphorylation. As to the kind of experiment: In vitro phospho-S6 cellular assay. It is filed as cell-based. As to conditions: Homo sapiens; HEK293T/17 cells, 2 hours; read-out: pS6 inhibition value (IC50), activity level. The text has this: Activation of mTOR signaling results in phosphorylation of several downstream targets. In cells, mTOR exists in two different protein complexes. The mTOR Complex-1 (mTORC1) phosphorylates and activates S6 Kinase 1 (S6K1) and S6 Kinase 2 (S6K2) (also known as p70S6K) which then phosphorylate S6 Ribosomal Protein (S6RP) (also known as RPS6)3. S6RP is phosphorylated on serine 235, serine 236, serine 240 and serine 244 by both pS6K1 and pS6K2. The mTOR Complex-2 (mTORC2) phosphorylates AKT on serine 473 which activates the AKT signaling pathway.
The assay measures a test compound's inhibition of S6RP serine-240/244 phosphorylation and inhibition of Akt serine-473 phosphorylation in human embryonic kidney derived HEK293T/17 cells (ATCC CRL-11268).
The HEK293T/17 cell line is maintained in DMEM media (Invitrogen catalogue number 41965-039) supplemented with 10% FCS at 37° C. in a 5% CO2 humidified incubator.
Cells are seeded in 96-well plates at 40,000 cells/well (pS6RP S240/244 assay) or 80,000 cells/well (pAkt S473 assay) in 90 μl growth media (DMEM, 2% FCS). Plates are incubated for 1 hour in a humidified incubator to allow the cells to adhere. Cells are treated with 8 concentrations of test compounds or DMSO alone for controls (final DMSO concentration 0.1%) and incubated at 37° C. for 2 hours. Then 20 μl of 5× concentrated lysis buffer (750 mM NaCl, 100 mM Tris pH7.4, 5 mM ADTA, 5 mM EGTA, 5% Triton X-100) is added, plates are sealed and incubated for 15 minutes at 4° C. with gentle shaking. After cell lysis, 25 μl cell lysate is transferred to a MesoScale plate coated with an antibody to pS6RP Ser240/244 (MesoScale Discovery K150DGD-3) or an antibody to pAkt Ser 473 (MesoScale Discovery K151DGD-3). Plates have been blocked before by incubation with 150 μl MesoScale Discovery Blocking Solution-A for 1 hour at room temperature followed by washing with 150 μl 1× Tris wash buffer per well. After the transfer of the cell lysate to the MSD plate, the pS6RP (or pAkt) protein is captured on the coated antibody by incubation at room temperature for 1 hour with gentle shaking. After the capture step the plate is washed three times with 150 μl of 1× Tris wash buffer per well. Then 25 μl detection antibody conjugated with a Sulfo-Tag is added and incubated for 1 hour at room temperature with gentle shaking. Subsequently the antibody solution is removed and the plate is washed 3 times with 150 μl 1× Tris wash buffer per well and 150 μl Read buffer is added. The plates are analysed on a MSD 2400 Plate Reader (MesoScale Discovery). Data analysis is performed using nonlinear regression for a sigmoidal dose-response with a variable slope.

For assay [2], the system named is IFNγ release in whole blood. The assay is described as follows: In vitro human whole blood assay (IFNγ release). It is filed as cell-based. The note with it: αCD3/αCD28 and IL-2 stimulation, 18 hours, read-out: WB inhibition value (pIC50) (converted). Here is the method:
This assay measures IFNγ release in whole blood after αCD3/αCD28 and IL-2 treatment. The whole blood contains circulating T lymphocytes; αCD3/αCD28 stimulation mimics antigen receptor signalling, resulting in epigenetic changes to the IFNG gene locus, such that when IL-2 is added, IFNγ is produced.
Human whole blood, with Na-heparin as the anticoagulant, is obtained from Clinical Trials Laboratory Services. Blood is diluted 1.4 times with RPMI 1640 (Lonza, BE12-167F) and 175 μl/well is distributed in a low evaporation 96-well plates (Falcon, BD Labware, 353072). Blood is treated with 10 concentrations of test compounds or DMSO alone for controls (final DMSO concentration 0.2%) and incubated at 37° C. for 1 hour. Blood is then stimulated with 1 μg/ml αCD3 (R&D Systems, MAB100), 1 μg/ml αCD28 (BD Pharmingen, 555725) and IL-2 at 10 ng/ml (Peprotech, 200-02). Blood is then left to incubate at 37° C. for 18 hours. After, plates are spun at 250 g for 5 minutes to pellet blood cells and 25 μl of plasma is transferred to a MesoScale plate coated with an antibody to IFNγ (MesoScale Discovery K151AEC-2) containing 25 μl/well MesoScale Discovery Blocking Solution-2. Plates have been blocked by incubating with 25 μl/well MesoScale Discovery Blocking Solution-2 for 30 minutes at room temperature. After the transfer of sera to the MSD plate, the IFNγ protein is captured on the coated antibody by incubation at room temperature for 2 hour with gentle shaking. After the capture step the plate is washed three times with 150 μl/well of 1×PBS-Tween wash buffer and 25 μl/well detection antibody conjugated with a Sulfo-Tag is added and incubated for 2 hours at room temperature with gentle shaking. Subsequently the antibody solution is removed and the plate is washed 3 times with 150 μl/well 1×PBS-Tween wash buffer and 150 μl/well MesoScale Discovery Read buffer is added. The plates are analysed on a MSD 2400 Plate Reader (MesoScale Discovery). Data analysis is performed using nonlinear regression for a sigmoidal dose-response with a variable slope.

The target of assay [3] is mTOR (Homo sapiens, UniProt P42345). As to the kind of experiment: biochemical.
In assay [4] the target is DNA-dependent protein kinase (DNA-PK) (Homo sapiens, UniProt P78527). The assay is described as follows: biochemical.
DNA-dependent protein kinase (DNA-PK), sequence (P78527 whole entry): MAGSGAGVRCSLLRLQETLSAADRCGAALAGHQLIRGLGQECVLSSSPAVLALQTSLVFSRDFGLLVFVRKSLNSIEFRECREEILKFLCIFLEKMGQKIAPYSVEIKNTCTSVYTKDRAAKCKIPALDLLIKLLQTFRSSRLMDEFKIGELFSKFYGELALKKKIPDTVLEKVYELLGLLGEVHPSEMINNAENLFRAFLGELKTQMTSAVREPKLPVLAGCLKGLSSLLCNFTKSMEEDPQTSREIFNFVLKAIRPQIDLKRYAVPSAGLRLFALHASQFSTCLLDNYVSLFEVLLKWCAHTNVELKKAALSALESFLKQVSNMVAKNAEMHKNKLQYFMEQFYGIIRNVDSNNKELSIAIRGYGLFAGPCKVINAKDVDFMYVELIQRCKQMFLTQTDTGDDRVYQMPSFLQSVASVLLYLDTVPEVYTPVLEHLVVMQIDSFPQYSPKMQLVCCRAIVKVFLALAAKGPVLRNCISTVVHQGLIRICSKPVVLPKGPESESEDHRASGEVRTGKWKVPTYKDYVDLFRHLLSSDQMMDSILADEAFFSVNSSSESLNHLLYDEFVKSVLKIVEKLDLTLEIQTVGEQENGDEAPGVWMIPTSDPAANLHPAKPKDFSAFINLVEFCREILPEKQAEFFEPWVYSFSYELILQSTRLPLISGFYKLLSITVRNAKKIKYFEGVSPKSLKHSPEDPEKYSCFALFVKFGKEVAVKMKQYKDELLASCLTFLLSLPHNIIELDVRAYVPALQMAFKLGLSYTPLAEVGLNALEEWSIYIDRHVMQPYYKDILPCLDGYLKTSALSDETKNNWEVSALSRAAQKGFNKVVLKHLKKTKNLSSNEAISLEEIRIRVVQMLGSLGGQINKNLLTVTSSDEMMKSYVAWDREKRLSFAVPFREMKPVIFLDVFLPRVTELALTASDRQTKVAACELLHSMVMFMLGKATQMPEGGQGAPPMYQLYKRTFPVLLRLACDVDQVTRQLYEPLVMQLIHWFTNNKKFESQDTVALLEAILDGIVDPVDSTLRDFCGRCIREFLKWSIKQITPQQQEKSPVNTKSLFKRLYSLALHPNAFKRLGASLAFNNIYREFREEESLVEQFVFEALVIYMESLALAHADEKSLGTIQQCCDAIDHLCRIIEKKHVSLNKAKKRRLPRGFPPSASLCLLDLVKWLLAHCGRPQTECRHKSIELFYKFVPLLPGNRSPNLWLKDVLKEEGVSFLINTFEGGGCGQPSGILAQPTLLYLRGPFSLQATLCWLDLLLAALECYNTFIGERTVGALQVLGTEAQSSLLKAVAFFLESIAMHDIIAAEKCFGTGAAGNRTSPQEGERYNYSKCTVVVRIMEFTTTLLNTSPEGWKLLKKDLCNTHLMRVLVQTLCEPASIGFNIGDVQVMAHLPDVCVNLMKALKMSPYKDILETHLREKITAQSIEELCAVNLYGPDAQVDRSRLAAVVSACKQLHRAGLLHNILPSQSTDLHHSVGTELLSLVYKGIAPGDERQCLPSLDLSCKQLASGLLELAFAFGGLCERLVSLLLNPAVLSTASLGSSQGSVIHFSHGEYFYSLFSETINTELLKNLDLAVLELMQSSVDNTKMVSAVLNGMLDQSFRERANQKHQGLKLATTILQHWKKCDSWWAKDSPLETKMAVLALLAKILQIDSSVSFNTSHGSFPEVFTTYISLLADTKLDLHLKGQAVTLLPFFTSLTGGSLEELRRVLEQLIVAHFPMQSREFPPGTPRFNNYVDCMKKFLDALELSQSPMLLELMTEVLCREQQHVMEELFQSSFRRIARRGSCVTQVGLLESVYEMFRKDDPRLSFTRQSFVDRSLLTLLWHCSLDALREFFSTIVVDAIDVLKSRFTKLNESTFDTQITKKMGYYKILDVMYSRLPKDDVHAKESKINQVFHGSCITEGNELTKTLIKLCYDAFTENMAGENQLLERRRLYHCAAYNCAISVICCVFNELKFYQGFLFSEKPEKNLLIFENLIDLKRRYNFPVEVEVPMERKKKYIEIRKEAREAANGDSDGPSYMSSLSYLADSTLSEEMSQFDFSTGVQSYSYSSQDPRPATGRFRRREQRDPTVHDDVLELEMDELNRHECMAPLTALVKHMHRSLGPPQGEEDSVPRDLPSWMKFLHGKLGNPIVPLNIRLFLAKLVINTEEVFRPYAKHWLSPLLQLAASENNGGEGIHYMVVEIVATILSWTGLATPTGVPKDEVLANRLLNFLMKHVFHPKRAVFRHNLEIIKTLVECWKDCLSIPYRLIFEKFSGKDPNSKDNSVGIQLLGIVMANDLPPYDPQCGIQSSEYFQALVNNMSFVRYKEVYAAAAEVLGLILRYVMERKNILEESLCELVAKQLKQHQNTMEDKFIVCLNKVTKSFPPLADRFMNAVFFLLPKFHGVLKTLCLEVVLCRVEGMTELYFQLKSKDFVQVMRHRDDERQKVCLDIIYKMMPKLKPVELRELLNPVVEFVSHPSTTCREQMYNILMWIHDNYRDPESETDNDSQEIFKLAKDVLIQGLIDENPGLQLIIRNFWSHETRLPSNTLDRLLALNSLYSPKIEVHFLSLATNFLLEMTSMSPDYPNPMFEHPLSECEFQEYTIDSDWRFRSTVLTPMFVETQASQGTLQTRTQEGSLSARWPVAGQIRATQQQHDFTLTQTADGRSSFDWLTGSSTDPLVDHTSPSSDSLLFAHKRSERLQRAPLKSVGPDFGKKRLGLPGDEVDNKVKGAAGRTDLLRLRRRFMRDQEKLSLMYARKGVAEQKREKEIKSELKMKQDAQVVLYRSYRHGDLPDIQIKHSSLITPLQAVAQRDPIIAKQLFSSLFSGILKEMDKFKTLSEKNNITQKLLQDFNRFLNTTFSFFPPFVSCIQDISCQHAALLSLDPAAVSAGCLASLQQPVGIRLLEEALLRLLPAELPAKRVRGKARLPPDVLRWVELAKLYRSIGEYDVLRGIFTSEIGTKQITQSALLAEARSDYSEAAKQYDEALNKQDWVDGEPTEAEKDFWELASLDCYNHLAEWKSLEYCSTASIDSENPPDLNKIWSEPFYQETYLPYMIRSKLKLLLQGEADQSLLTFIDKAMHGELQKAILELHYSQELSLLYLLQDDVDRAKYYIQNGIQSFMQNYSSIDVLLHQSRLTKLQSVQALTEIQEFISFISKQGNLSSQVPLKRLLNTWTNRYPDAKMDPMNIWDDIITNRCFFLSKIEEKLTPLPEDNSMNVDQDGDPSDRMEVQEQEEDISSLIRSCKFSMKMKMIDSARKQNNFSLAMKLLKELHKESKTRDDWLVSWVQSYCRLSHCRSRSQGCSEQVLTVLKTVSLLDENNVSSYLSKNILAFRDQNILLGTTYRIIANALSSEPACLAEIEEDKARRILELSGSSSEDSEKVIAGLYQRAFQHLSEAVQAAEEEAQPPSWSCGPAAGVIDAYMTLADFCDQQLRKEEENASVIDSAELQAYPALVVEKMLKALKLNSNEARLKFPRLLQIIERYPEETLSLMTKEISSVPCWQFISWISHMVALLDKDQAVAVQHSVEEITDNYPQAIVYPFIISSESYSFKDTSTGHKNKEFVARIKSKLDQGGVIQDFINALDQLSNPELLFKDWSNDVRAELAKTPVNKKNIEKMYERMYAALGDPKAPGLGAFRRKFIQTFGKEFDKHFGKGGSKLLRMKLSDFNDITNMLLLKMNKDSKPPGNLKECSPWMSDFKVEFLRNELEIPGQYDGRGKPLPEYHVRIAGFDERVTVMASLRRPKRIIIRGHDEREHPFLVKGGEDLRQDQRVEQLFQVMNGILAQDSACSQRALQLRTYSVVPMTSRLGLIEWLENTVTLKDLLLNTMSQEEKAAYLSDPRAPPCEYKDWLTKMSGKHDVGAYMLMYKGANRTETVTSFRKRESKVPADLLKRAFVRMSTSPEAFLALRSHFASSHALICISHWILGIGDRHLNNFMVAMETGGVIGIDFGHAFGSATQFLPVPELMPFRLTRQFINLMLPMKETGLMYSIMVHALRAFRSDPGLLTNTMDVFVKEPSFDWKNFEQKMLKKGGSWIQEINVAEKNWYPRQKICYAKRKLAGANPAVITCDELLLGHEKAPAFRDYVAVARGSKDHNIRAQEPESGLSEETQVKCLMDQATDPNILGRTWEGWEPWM

The record followed here is US9242993B2, “Morpholino substituted bicyclic pyrimidine urea or carbamate derivatives as mTOR inhibitors” (CELLZOME LIMITED, priority 2011, dated 2016).

pIC50: −log10 of the molar value.

In general, pIC50 refers to the negative decadic logarithm of the IC50, by convention in mol/L. `CC1c2c(N3CCOC[C@@H]3C)nc(-c3ccc(NC(=O)NCCF)cc3)nc2C(C)(C)S1(=O)=O` (stereo partly drawn) [Example 75, 1-(2-fluoroethyl)-3-(4-(5,7,7-trimethyl-4-((S)-3-methylmorpholino)-6,6-dioxido-5,7-dihydrothieno[3,4-d]pyrimidin-2-yl)phenyl)urea]: the pIC50 in assay [1] and in assay [3] was greater than 7.00 in each case. Moreover, the IC50 in assay [2] was 126 nM.

With `CCNC(=O)Nc1ccc(-c2nc3c(c(N4CCOC[C@@H]4C)n2)[C@@H](C)S(=O)(=O)C3)cc1` [Example 39, 1-ethyl-3-(4-((R)-5-methyl-4-((S)-3-methylmorpholino)-6,6-dioxido-5,7-dihydrothieno[3,4-d]pyrimidin-2-yl)phenyl)urea], the pIC50 in assay [1] and in assay [3] was greater than 7.00 each time. Further, the IC50 in assay [2] is 100 nM.

`CC1c2nc(-c3ccc(NC(=O)NC4CC4)cc3)nc(N3CCOC[C@@H]3C)c2C(C)S1(=O)=O` (stereo partly drawn) [Example 44, 1-cyclopropyl-3-(4-(5,7-dimethyl-4-((S)-3-methylmorpholino)-6,6-dioxido-5,7-dihydrothieno[3,4-d]pyrimidin-2-yl)phenyl)urea]: the pIC50 in assay [1] and in assay [3] was greater than 7.00 in each case. Further, the IC50 in assay [2] is 39.8 nM.

For `CNC(=O)Nc1ccc(-c2nc(N3CCOC[C@@H]3C)c3c(n2)C(C)(C)S(=O)(=O)C3C)cc1` (stereo partly drawn) [Example 77, 1-methyl-3-(4-(5,7,7-trimethyl-4-((S)-3-methylmorpholino)-6,6-dioxido-5,7-dihydrothieno[3,4-d]pyrimidin-2-yl)phenyl)urea], the pIC50 in assay [1] and in assay [3] was greater than 7.00 each time. Also, in assay [2], the IC50 is 200 nM.

Consider `CNC(=O)Nc1ccc(-c2nc(N3CCOC[C@@H]3C)c3c(n2)C(C)(C)S(=O)(=O)C3)cc1` [Example 57, (S)-1-(4-(7,7-dimethyl-4-(3-methylmorpholino)-6,6-dioxido-5,7-dihydrothieno[3,4-d]pyrimidin-2-yl)phenyl)-3-methylurea], for which the IC50 in assay [2] is 251 nM. Moreover, the pIC50 in assay [3] is greater than 7.00; in assay [4], less than 5.00.

`CCNC(=O)Nc1ccc(-c2nc3c(c(N4CCOC[C@@H]4C)n2)[C@H](C)S(=O)(=O)C3)cc1` [Example 40, 1-ethyl-3-(4-((S)-5-methyl-4-((S)-3-methylmorpholino)-6,6-dioxido-5,7-dihydrothieno[3,4-d]pyrimidin-2-yl)phenyl)urea]: the pIC50 in assay [1] and in assay [3] was greater than 7.00 throughout. Besides, the IC50 in assay [2] is 200 nM.

Consider `C[C@@H]1COCCN1c1nc(-c2ccc(NC(=O)NC3CC3)cc2)nc2c1CS(=O)(=O)C2(C)C` [Example 54, (R)-1-cyclopropyl-3-(4-(7,7-dimethyl-4-(3-methylmorpholino)-6,6-dioxido-5,7-dihydrothieno[3,4-d]pyrimidin-2-yl)phenyl)urea], for which the pIC50 in assay [1] and in assay [3] was greater than 7.00 throughout. In assay [2], the IC50 is 200 nM.

For `CCNC(=O)Nc1ccc(-c2nc(N3CCOC[C@@H]3C)c3c(n2)C(C)(C)S(=O)(=O)C3C)cc1` (stereo partly drawn) [Example 42, 1-ethyl-3-(4-(5,7,7-trimethyl-4-((S)-3-methylmorpholino)-6,6-dioxido-5,7-dihydrothieno[3,4-d]pyrimidin-2-yl)phenyl)urea], the pIC50 in assay [1] and in assay [3] was greater than 7.00 each time. The IC50 in assay [2] is 251 nM.

As for `CC1c2c(nc(-c3ccc(NC(=O)NC4CC4)cc3)nc2N2CCOC[C@H]2C)CS1(=O)=O` (stereo partly drawn) [Example 48, 1-cyclopropyl-3-(4-(5-methyl-4-((R)-3-methylmorpholino)-6,6-dioxido-5,7-dihydrothieno[3,4-d]pyrimidin-2-yl)phenyl)urea], the pIC50 in assay [1] and in assay [3] was greater than 7.00 each time. In addition, in assay [2], the IC50 was 79.4 nM.

Take `CC1c2c(nc(-c3ccc(NC(=O)NCC4CC4)cc3)nc2N2CCOC[C@@H]2C)CS1(=O)=O` (stereo partly drawn) [Example 46, 1-(cyclopropylmethyl)-3-(4-(5-methyl-4-((S)-3-methylmorpholino)-6,6-dioxido-5,7-dihydrothieno[3,4-d]pyrimidin-2-yl)phenyl)urea]: the pIC50 in assay [1] and in assay [3] was greater than 7.00 throughout. The IC50 in assay [2] was 2000 nM.

Take `CNC(=O)Nc1ccc(-c2nc(N3CCOC[C@@H]3C)c3c(n2)C(C)(C)S(=O)(=O)C3C)c(F)c1` (stereo partly drawn) [Example 78, 1-(3-fluoro-4-(5,7,7-trimethyl-4-((S)-3-methylmorpholino)-6,6-dioxido-5,7-dihydrothieno[3,4-d]pyrimidin-2-yl)phenyl)-3-methylurea]: the pIC50 in assay [1] and in assay [3] was greater than 7.00 in each case. In assay [2], the IC50 was 501 nM.

With `CCCNC(=O)Nc1ccc(-c2nc3c(c(N4CCOC[C@@H]4C)n2)C(C)S(=O)(=O)C3)cc1` (stereo partly drawn) [Example 45, 1-(4-(5-methyl-4-((S)-3-methylmorpholino)-6,6-dioxido-5,7-dihydrothieno[3,4-d]pyrimidin-2-yl)phenyl)-3-propylurea], the pIC50 in assay [1] and in assay [3] was greater than 7.00 in each case. Further, the IC50 in assay [2] is 398 nM.

In the case of `CCNC(=O)Nc1ccc(-c2nc3c(c(N4CCOC[C@@H]4C)n2)C(C)S(=O)(=O)C3)cc1` (stereo partly drawn) [Example 38, 1-ethyl-3-(4-(5-methyl-4-((S)-3-methylmorpholino)-6,6-dioxido-5,7-dihydrothieno[3,4-d]pyrimidin-2-yl)phenyl)urea], the pIC50 in assay [1] and in assay [3] was greater than 7.00 each time. Further, the IC50 in assay [2] was 158 nM.

As to `CCC1c2c(nc(-c3ccc(NC(=O)NC4CC4)cc3)nc2N2CCOC[C@@H]2C)CS1(=O)=O` (stereo partly drawn) [Example 49, 1-cyclopropyl-3-(4-(5-ethyl-4-((S)-3-methylmorpholino)-6,6-dioxido-5,7-dihydrothieno[3,4-d]pyrimidin-2-yl)phenyl)urea], the pIC50 in assay [1] and in assay [3] was greater than 7.00 in each case. In addition, the IC50 in assay [2] is 200 nM.

Take `CCNC(=O)Nc1ccc(-c2nc(N3CCOCC3)c3c(n2)C(C)(C)S(=O)(=O)C3)cc1` [Example 76, 1-(4-(7,7-dimethyl-4-morpholino-6,6-dioxido-5,7-dihydrothieno[3,4-d]pyrimidin-2-yl)phenyl)-3-ethylurea]: the pIC50 in assay [1] and in assay [3] was greater than 7.00 in each case. The IC50 in assay [2] was 631 nM.
